These results are taken from paper PMC11509018, “Evaluation of the Role of Tanshinone I in an In Vitro System of Charcot-Marie-Tooth Disease Type 2N” (International Journal of Molecular Sciences, 2024).

This assay deals with T1, AlaRS E337K binding to GST-Nrp1 b1 (Homo sapiens, UniProt P49588, E337K).
T1 construct: made in house; host or cells: E. coli BL21 (DE3), pET-21a for AlaRS
T1 sequence (P49588 1-968 E337K): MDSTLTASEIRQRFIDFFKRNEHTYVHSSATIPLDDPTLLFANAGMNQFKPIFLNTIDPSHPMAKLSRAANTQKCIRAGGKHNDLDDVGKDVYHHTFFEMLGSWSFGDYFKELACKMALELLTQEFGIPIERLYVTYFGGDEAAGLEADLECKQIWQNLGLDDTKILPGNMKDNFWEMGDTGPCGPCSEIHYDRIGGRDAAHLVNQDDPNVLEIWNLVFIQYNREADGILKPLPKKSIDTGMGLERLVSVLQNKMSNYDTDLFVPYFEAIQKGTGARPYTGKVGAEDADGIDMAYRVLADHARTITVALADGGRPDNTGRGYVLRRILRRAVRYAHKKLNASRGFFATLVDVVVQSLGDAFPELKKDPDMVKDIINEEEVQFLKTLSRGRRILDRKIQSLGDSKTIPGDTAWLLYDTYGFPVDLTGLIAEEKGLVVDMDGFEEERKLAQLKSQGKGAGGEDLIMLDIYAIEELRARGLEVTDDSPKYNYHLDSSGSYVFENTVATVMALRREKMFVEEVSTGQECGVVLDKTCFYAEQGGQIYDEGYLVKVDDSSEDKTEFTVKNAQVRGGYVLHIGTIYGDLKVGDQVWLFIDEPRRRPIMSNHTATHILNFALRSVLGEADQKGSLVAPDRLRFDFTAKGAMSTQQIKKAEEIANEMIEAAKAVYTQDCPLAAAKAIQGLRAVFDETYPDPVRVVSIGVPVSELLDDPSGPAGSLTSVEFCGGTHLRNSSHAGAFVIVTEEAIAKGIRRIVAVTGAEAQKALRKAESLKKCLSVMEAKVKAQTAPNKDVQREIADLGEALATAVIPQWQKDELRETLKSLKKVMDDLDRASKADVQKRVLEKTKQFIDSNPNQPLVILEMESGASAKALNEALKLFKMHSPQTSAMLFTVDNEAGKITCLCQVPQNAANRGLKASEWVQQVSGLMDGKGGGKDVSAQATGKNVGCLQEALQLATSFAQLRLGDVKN
Briefly: GST pull down assay. Conditions: 20 µM Tanshinone I, ImageJ, average of three repeats.

Molecules are shown by their SMILES.

Turning to `Cc1coc2c1C(=O)C(=O)c1c-2ccc2c(C)cccc12` [Tanshinone I], the “Mean density band (E337K), relative quantification of AlaRS mutant pulled down” value was found to be 0.90.
